Consider 21 molecules from patent publication US11014908B2, “Chemical compounds” (Pfizer Inc., priority 2018, dated 2021).

Usually Kd stands for the free concentration of one partner at which half of the binding sites on the other are occupied at equilibrium, for simple one-to-one binding. Low values mean a tighter complex, high ones a looser complex. One may read the IC50 as the midpoint of a concentration-inhibition curve. A lower IC50 goes with greater potency.

Assay [1] addresses T1, purified sickle cell hemoglobin (HbS) (Homo sapiens, UniProt P68871+P69905, E7V).
T1 construct: HbS was obtained from the blood of homozygous S/S patients; from tissue; host or cells: red blood cells of homozygous S/S patients
The experiment in a line: Binding affinity to purified HbS by Surface Plasmon Resonance (SPR). The following applies: crosslinked biotinylated HbS, 1:1 binding model. As to the method:
Binding Affinity, Kd (uM)
The binding affinity for compounds to purified sickle cell hemoglobin (HbS) was determined using Surface Plasmon Resonance (SPR). Patient Sickle Cell blood was obtained from Boston Children's Hospital in accordance with Institutional Review Board protocols. HbS was obtained from the blood of homozygous S/S patients, and purified using the method described in: Antonini and Brunori, Hemoglobin and Myoglobin in their Reactions with Ligands. Amsterdam, London, North-Holland Publishing Company, 1971. Whole blood was separated into red blood cell and plasma components by centrifugation, after which the plasma was decanted and discarded. Packed red blood cells were washed with normal saline (0.9% NaCl) and then lysed by 2:1 dilution with cold deionized water. The hemolysate was centrifuged to remove cellular debris, and further purified with the addition of Drabkin's Buffer (2.8 M potassium phosphate), and centrifugation with Celite®. Organic phosphates (2,3-BPG) were removed via gel filtration with Sephadex® G-25. HbS and wild-type hemoglobin, hemoglobin A (HbA), were separated by […], using diethylaminoethyl (DEAE)-Sepharose® fast flow, and eluted using a pH gradient from pH 8.5-pH 7.5. Purity of the resulting HbS and HbA was determined by native gel electrophoresis and HbS fractions used further.
To stabilize the tetrameric structure of hemoglobin, HbS was crosslinked between the beta subunits (Lys82-Lys82) using bis(3,5-dibromosalicyl) fumarate, as described in: Shibayama N. et al, J Am Chem Soc 2014, 136, 13, 5097-5105 and Shibayama N. et al, Biochemistry 1991, 39, 33, 8158-8165). Crosslinked HbS was subsequently biotynylated and captured on a custom made Streptavidin sensor to achieve protein density of 4000 to 5000 resonance units (RUs) on the surface. Compound binding to HbS using SPR was tested on Sierra Sensors MASS-1 instrument. The running buffer contained 100 mM Potassium Phosphate, pH 7.5, 0.005% Tween-20, 1 mM ethylenediaminetetraacetic acid (EDTA), 0.1 mg/mL bovine serum albumin with 1% DMSO. Compound samples were injected at a flow rate of 30 μL/min for 2 minutes association and at least 5 minutes of dissociation time. A 2- or 3-fold dilution series containing at least 4 concentrations were tested for each compound. The dose range was selected based on the activity of the compounds in biochemical assays, when available. Multiple blank injections of running buffer were run before and after each compound series to allow blank subtraction for compound data in the analysis software. Positive controls were run in each experiment to monitor and maintain the activity of HbS on the surface. A DMSO curve was run at the beginning of each data set to apply an excluded volume correction to the data during analysis. The data were processed and analyzed using Sierra Sensors and Scrubber 2.0 software. The binding affinities (dissociation constant Kd) were calculated by fitting the sensorgrams to a 1:1 binding model.

Another assay deals with T2, HbS (Homo sapiens, UniProt P68871+P69905, E7V).
T2 construct: HbS was obtained from the blood of homozygous S/S patients; from tissue; host or cells: red blood cells of homozygous S/S patients
The experiment in a line: 'R'-'T' assay (conversion of oxy HbS to deoxy HbS under deoxygenating conditions). The format is biochemical. Conditions: 50% inhibition of HbS 'R'-'T' conversion; 3 uM HbS, <1% O2. As to the method: Conversion from oxy (R, relaxed state) to deoxy (T, tense state) HbS in the presence of compound was performed to determine the ability of compounds to stabilize the oxy (R) state under deoxygenating conditions. The assay run was similar to the ‘Oxygen dissociation assay’ described in Oksenberg et al, Br J Haematology, 2016, 175, 141-153.
Assay ready compound plates were prepared by first preparing a master serial dilution plate from a 30 mM initial compound stock in 100% DMSO. From this master serial dilution plate, 167 nL of the desired compound concentration was delivered to the assay ready plates using acoustical dispensing. Plates were frozen at −20° C. until needed. Purified HbS-O2 (i.e. oxy HbS) was diluted to 3 uM in 100 mM potassium phosphate buffer, pH=7.4. 50 uL of 3 uM stock solution was added to each well of the assay ready plate and mechanically mixed eight times. Following mixing the plates were covered and incubated at room temperature for one hour with moderate shaking. Following incubation, the plates were placed in a deoxygenated environment (<1% O2) for two hours, and the conversion to deoxy HbS monitored as a function of time. Oxygenated and deoxygenated forms of hemoglobin were detected using the absorbance of the Soret peaks at 415 and 430 nm respectively, and absorbance measurements (optical density, OD) were taken at 0, 90 and 120 minutes. Background absorbance for correction was collected at 700 nm.
Data were analyzed by first subtracting baseline absorbance at 700 nm from 415 nm and 430 nm data at each timepoint, and then taking the ratio of 415/430 nm data (Ratio=[(OD415−OD700)/(OD430−OD700)]. The effect at each timepoint was calculated using the ratios from the previous calculation at time 0 and each time point of interest (Effect^time x=Ratio^time x/Ratio^time 0). Percent effect was calculated by comparing the effects of compound versus HbS only with the effects observed by the positive control compound tucaresol (percent effect=[(effect^time x compound−effect^time x HbS)/(effect^time x tucaresol−effect^time x HbS)]×100). Data were reported as the percent effect for a single point. Calculations to determine the concentration of compound for 50% inhibition (IC50 (uM)) of the HbS ‘R’-‘T’ conversion were based on the percent effect at varying compound concentration.

In turn, `C[C@H](Oc1cc2cc(F)ccc2nc1N)c1cc(NS(C)(=O)=O)ccc1-n1cccn1` [Example 18, N-[3-{(1S)-1-[(2-amino-6-fluoroquinolin-3-yl)oxy]ethyl}-4-(1H-pyrazol-1-yl)phenyl]methanesulfonamide] gave a Kd in assay [1] of 194 nM. In addition, the IC50 on HbS was found to be 7160 nM. `Cc1cc2nc(N)c(O[C@@H](C)c3nc(O)ccc3-n3cccn3)cc2cn1` [Example 46, 6-{(1S)-1-[(2-amino-7-methyl-1,6-naphthyridin-3-yl)oxy]ethyl}-5-(1H-pyrazol-1-yl)pyridin-2-ol] registered a dissociation constant (Kd) in assay [1] of 102 nM. The molecule further had an IC50 at HbS of 5220 nM. The matching figures for `C[C@H](Oc1cc2cc(F)ccc2nc1N)c1nc(C(=O)O)ccc1-n1cccn1` [Example 37, 6-{(1S)-1-[(2-amino-6-fluoroquinolin-3-yl)oxy]ethyl}-5-(1H-pyrazol-1-yl)pyridine-2-carboxylic Acid]: 579 nM and 6770 nM. The matching figures for `Cc1cc2nc(N)c(O[C@@H](C)c3ncc(F)cc3-n3cccn3)cc2cn1` [Example 36, 3-{(1S)-1-[5-fluoro-3-(1H-pyrazol-1-yl)pyridin-2-yl]ethoxy}-7-methyl-1,6-naphthyridin-2-amine]: 160 nM and 7710 nM. For `C[C@H](Oc1cc2cc([C@@H](C)O)ccc2nc1N)c1nc(O)ccc1-n1cccn1` [Example 51, 6-[(1S)-1-({2-amino-6-[(1R)-1-hydroxyethyl]quinolin-3-yl}oxy)ethyl]-5-(1H-pyrazol-1-yl)pyridin-2-ol], the Kd in assay [1] amounted to 6880 nM. The molecule also registered a half-inhibitory concentration (IC50) on HbS of 52100 nM.

On to `C[C@H](Oc1cc2cc(Br)ccc2nc1N)c1ncc(F)cc1-n1cccn1` [Example 25, 6-bromo-3-{(1S)-1-[5-fluoro-3-(1H-pyrazol-1-yl)pyridin-2-yl]ethoxy}quinolin-2-amine], for which binding in assay [1] was characterised by a dissociation constant (Kd) of 67 nM. In addition, the concentration for half-maximal inhibition (IC50) at HbS worked out at 4780 nM.

For the molecule `COC(=O)c1ccc(-n2cccn2)c([C@H](C)Oc2cc3cc(F)ccc3nc2N)c1` [Example 6, methyl 3-{(1S)-1-[(2-amino-6-fluoroquinolin-3-yl)oxy]ethyl}-4-(1H-pyrazol-1-yl)benzoate], in assay [1], the Kd was 35 nM. Moreover, the IC50 on HbS was found to be 4480 nM. For `C[C@H](Oc1cc2cc(F)ccc2nc1N)c1nc(C(=O)O)c(F)cc1-n1cccn1` [Example 39, 6-{(1S)-1-[(2-amino-6-fluoroquinolin-3-yl)oxy]ethyl}-3-fluoro-5-(1H-pyrazol-1-yl)pyridine-2-carboxylic Acid], in that order: 464 nM and 6220 nM. The matching figures for `Cc1nc2cc(-n3cccn3)c([C@H](C)Oc3cc4cc(F)ccc4nc3N)cc2[nH]1` [Example 64, 6-fluoro-3-{(1S)-1-[2-methyl-5-(1H-pyrazol-1-yl)-1H-benzimidazol-6-yl]ethoxy}quinolin-2-amine]: 220 nM and 5730 nM. On to `C[C@H](Oc1cc2cc(F)ccc2nc1N)c1cc2nn(CC(=O)O)cc2cc1-n1cccn1` [Example 71, [6-{(1S)-1-[(2-amino-6-fluoroquinolin-3-yl)oxy]ethyl}-5-(1H-pyrazol-1-yl)-2H-indazol-2-yl]acetic Acid], for which, in assay [1], the dissociation constant (Kd) is 48 nM. This molecule had a 50% inhibitory concentration (IC50) at HbS of 4610 nM. In assay [1], `C[C@H](Oc1cc2cc(CO)ccc2nc1N)c1nc(O)ccc1-n1cccn1` [Example 49, 6-[(1S)-1-{[2-amino-6-(hydroxymethyl)quinolin-3-yl]oxy}ethyl]-5-(1H-pyrazol-1-yl)pyridin-2-ol] came in with a dissociation constant Kd of 178 nM. Also, the concentration for half-maximal inhibition (IC50) against HbS was 6390 nM. As to `C[C@H](Oc1cc2cc(C(N)=O)ccc2nc1N)c1nc(O)ccc1-n1cccn1` [Example 44, 2-amino-3-{(1S)-1-[6-hydroxy-3-(1H-pyrazol-1-yl)pyridin-2-yl]ethoxy}quinoline-6-carboxamide], the affinity in assay [1], expressed as Kd, was 63 nM. The same molecule showed an IC50 on HbS of 4400 nM. `C[C@H](Oc1cc2cc(F)ccc2nc1N)c1cc2c(cnn2CCO)cc1-n1cccn1` [Example 73, 2-[6-{(1S)-1-[(2-amino-6-fluoroquinolin-3-yl)oxy]ethyl}-5-(1H-pyrazol-1-yl)-1H-indazol-1-yl]ethanol] registered a Kd in assay [1] of 20 nM. Also, on HbS, the IC50 is 4510 nM. In assay [1], `C[C@H](Oc1cc2cc(F)ccc2nc1N)c1cc2c(cnn2CC(N)=O)cc1-n1cccn1` [Example 70, 2-[6-{(1S)-1-[(2-amino-6-fluoroquinolin-3-yl)oxy]ethyl}-5-(1H-pyrazol-1-yl)-1H-indazol-1-yl]acetamide] had a Kd of 13 nM. Moreover, at HbS, half-maximal inhibition (IC50) required 4600 nM. For `C[C@H](Oc1cc2cc(F)ccc2nc1N)c1nc(OCC(=O)O)ccc1-n1cccn1` [Example 40, {[6-{(1S)-1-[(2-amino-6-fluoroquinolin-3-yl)oxy]ethyl}-5-(1H-pyrazol-1-yl)pyridin-2-yl]oxy}acetic Acid], in that order: 164 nM and 5270 nM.

The molecule `C[C@H](Oc1cc2cc(F)cc(F)c2nc1N)c1[nH]c(=O)ccc1-n1cccn1` [Example 53, 6-{(1S)-1-[(2-amino-6,8-difluoroquinolin-3-yl)oxy]ethyl}-5-(1H-pyrazol-1-yl)pyridin-2-ol] returned a dissociation constant (Kd) in assay [1] of 16 nM. This molecule also gave a concentration for half-maximal inhibition (IC50) at HbS of 4250 nM. Molecule `C[C@H](Oc1cc2ccccc2nc1N)c1ncc(F)cc1-n1cccn1` [Example 45, 3-{(1S)-1-[5-fluoro-3-(1H-pyrazol-1-yl)pyridin-2-yl]ethoxy}quinolin-2-amine] gave a Kd in assay [1] of 185 nM. At HbS, this molecule registered an IC50 of 5580 nM.

`C[C@H](Oc1cc2cc(C#N)ccc2nc1N)c1ncc(F)cc1-n1cccn1` [Example 26, 2-amino-3-{(1S)-1-[5-fluoro-3-(1H-pyrazol-1-yl)pyridin-2-yl]ethoxy}quinoline-6-carbonitrile] showed a Kd in assay [1] of 138 nM. At HbS, this molecule returned a concentration for half-maximal inhibition (IC50) of 4910 nM. In turn, `C[C@H](Oc1cc2cc(C(N)=O)ccc2nc1N)c1nc2[nH]ncc2cc1-n1cccn1` [Example 62, 2-amino-3-{(1S)-1-[5-(1H-pyrazol-1-yl)-1H-pyrazolo[3,4-b]pyridin-6-yl]ethoxy}quinoline-6-carboxamide] registered a Kd in assay [1] of 40 nM. On to `C[C@H](Oc1cc2cc(F)ccc2nc1N)c1cc(S(N)(=O)=O)ccc1-n1cccn1` [Example 7, 3-{(1S)-1-[(2-amino-6-fluoroquinolin-3-yl)oxy]ethyl}-4-(1H-pyrazol-1-yl)benzenesulfonamide], for which, in assay [1], binding was characterised by a dissociation constant (Kd) of 126 nM. Same read-out and setting: the value for `C[C@H](Oc1cc2cc(F)cc(F)c2nc1N)c1cc(-c2noc(=O)[nH]2)ccc1-n1cccn1` [Example 80, (S)-3-(3-(1-((2-amino-6,8-difluoroquinolin-3-yl)oxy)ethyl)-4-(1H-pyrazol-1-yl)phenyl)-1,2,4-oxadiazol-5(4H)-one] was 36 nM.
